Source: article PMC4579271, “Inflammatory Signaling by NOD-RIPK2 Is Inhibited by Clinically Relevant Type II Kinase Inhibitors” (Chemistry & Biology, 2015)

What was measured:
[1] = test system: RIPK1 ubiquitination and IκBα degradation in THP-1 cells; assay: TUBE purification and immunoblot, TNF-stimulated THP-1 cells; assay type: cell-based, human; settings: TNF treatment
Description: Figure 5 Inhibition of NOD2-Dependent Ubiquitination and Signaling (A–C) THP-1 cells were pre-treated with kinase inhibitors or DMSO for 30 min and stimulated with 200 ng/ml L18-MDP (A, B) or TNF (C) as indicated. At the indicated time points, cells were lysed and ubiquitinated proteins were isolated using TUBE reagent. The isolated ubiquitinated proteins and input material were analyzed by immunoblotting. See also Figure S6.
The ubiquitin conjugates were purified using GST-Tandem Ubiquitin Binding Entities (TUBE; [Fiil et al., 2013]). In brief, treated THP-1 cells (6–10 × 10^6) were washed with PBS and lysed in 400 μl of ice-cold lysis buffer containing TUBE on ice for 30 min. Cleared lysates were incubated with Glutathione Sepharose 4B resin (Amersham) with agitation at 4°C overnight. The beads were washed four times with PBS-Tween (0.1%) and the bound proteins were released by heating the beads in reducing SDS sample buffer. The samples were resolved on pre-cast gradient gels (NuPage; Life Technologies) in MOPS running buffer and subjected to immunoblotting.

[2] = test system: LPS and Pam3CSK4 responses in RAW264.7 cells; assay: qRT-PCR of Toll-like receptor-dependent inflammatory gene expression in RAW264.7 cells (LPS, Pam3CSK4); assay type: cell-based, mouse; settings: 100 nM
Description: Figure 6 Inhibition of NOD-Dependent Inflammatory Gene Expression in RAW264.7 Cells (A and B) Cells were pre-treated with 1, 10, or 100 nM inhibitors for 30 min and stimulated with 10 μg/ml MDP (A) or Tri-DAP (B) for 18–24 hr in triplicate. RNA samples were isolated and changes in gene expression were analyzed using gene-specific primers using SYBR qRT-PCR. All values were normalized to the levels of GAPDH. (C and D) Lack of inhibition of Toll-like receptor-dependent inflammatory gene expression in RAW264.7 cells. Experiments were performed as described above, except cells were stimulated with 10 ng/ml E. coli LPS (C) or 500 ng/ml Pam3CSK4 (D). All experiments were performed in triplicate; error bars indicate SD values.
40C centrifuge at 14,000 rpm for 15 min to collect lysates. Protein concentrations were measured using […] protein assay reagent (Pierce). […]
For ADPGlo (Promega) assays, 1 ng Abl or 10 ng of RIPK2 was diluted in reaction buff er (40 mM Tris-HCl pH 7.5, 20 mM MgCl2, 0.5 m M DTT, 0.01% BSA) supplemented with 50 µM ATP and 10-point dose range of inhibitors. […] Luminescent signal was generated by addition of 10 µL of kinase detection reagent for 30 minutes at room temperature and determined using Victor3V platereader (Perkin Elmer). Specific signal was calculated by subtracting values in the wells without protein and inhibitor from the values in the test wells. […]

For `Cc1ccc(C(=O)Nc2ccc(CN3CCN(C)CC3)c(C(F)(F)F)c2)cc1C#Cc1cnc2cccnn12` [ponatinib, 3-[2-(imidazo[1,2-b]pyridazin-3-yl)ethynyl]-4-methyl-N-{4-[(4-methylpiperazin-1-yl)methyl]-3-(trifluoromethyl)phenyl}benzamide], which “ubiquitination of RIPK1 or IκBα degradation” value [1] is on record?
The value was “no obvious effects”.

What about the “LPS and Pam3CSK4 responses” value [2] of the same compound?
The value was “partially attenuated”.
